For one test, the system named is cholesterol synthesis. The test is described as follows: Inhibition of cholesterol synthesis.
The subject of the next test is fatty acid synthesis. The test is described as follows: Inhibition of fatty acid synthesis. As to conditions: compared with its inhibition of cholesterol synthesis.

Each structure is given as a SMILES string.

On to `CC1(C)[C@@H](O)CC[C@]2(C)[C@@H](CO)CCC[C@@H]12` (relative stereo) [JW I-60, 4,4,10beta-trimethyl-9beta-hydroxymethyl-trans-decal-3beta-ol], for which the “inhibition of cholesterol synthesis” value in the test on cholesterol synthesis is “weak inhibitor of cholesterol synthesis”. Besides, the “inhibition of fatty acid synthesis” value in the test on fatty acid synthesis is recorded as “much more effective inhibitor of fatty acid synthesis”.

For the origin of these results see patent US4863932A, “Squalene oxide cyclase inhibitors and therapeutic use thereof” (Somatogenetics International, Inc., priority 1988, dated 1989).
